Assay results from US20180271470A1, “METHODS FOR QUANTIFYING PANCREATIC BETA CELL FUNCTION AND MASS PROPERTIES WITH RADIOMANGANESE POSITRON EMISSION TOMOGRAPHY” (Wisconsin Alumni Research Foundation, priority 2017, published 2018).
“And” between values parts separate entries of the source, which are not always exact repeats. Equal values may be shown once.

What was measured:
[1] = molecular target: type 2 vesicular transporter (VMAT2) (Homo sapiens, UniProt Q05940); details: cited from earlier work
[2] = dogs, previous studies; cited from earlier work
[3] = primate models; cited from earlier work
[4] = Static PET imaging of ^52Mn^2+ biodistribution in normal mice; format: in vivo, ICR mice
Protocol: The acquisition of PET images was performed in the Inveon μPET/μCT scanner (Siemens Preclinical Solutions, Knoxville, Tenn.). To study the long-term biodistribution and clearance of ^52Mn^2+ in the mouse body, approximately 3.7 MBq (100 μCi) of ^52Mn^2+ was injected intravenously (IV) in female ICR mice. […] Before each scan, mice were anesthetized with isoflurane (4% induction; 1% maintenance) and placed in the scanner in prone position. 30×10^6-40×10^6 coincidence events per mouse static PET scans were acquired (time window, 3.432 ns; energy window, 350-650 keV) and the PET images were reconstructed in Inveon Acquisition Workplace (Siemens Preclinical Solutions, Knoxville, Tenn.) workstation using a non-scatter-corrected three-dimensional Ordered Subset Expectation […]/Maximum a Posteriori (OSEM3D/MAP) algorithm. Region-of-interest (ROI) analysis was performed after organs were manually delineated on the PET images. Tissue uptake values were reported as standardized uptake value (SUV), which is normalized to whole body radiomanganese concentration.

[5] = Ex vivo ^52Mn^2+ biodistribution by gamma counting after last PET scan; format: in vivo; details: ICR mice, ex vivo gamma counting 13 days after injection
Protocol: Ex vivo biodistribution studies were performed in all groups of mice in order to validate the results of PET imaging and obtain a more complete biodistribution profile of ^52Mn^2+. Following the last imaging time point, mice were euthanized by C02 asphyxiation and the organs of interest were removed, wet-weighed, and counted on an automated gamma-counter (Wizard 2480, Perkin Elmer). The tissue uptake of ^52Mn^2+ was reported as SUV (mean±SD).

[6] = Dynamic PET of ^52Mn^2+ (rapid IV bolus or 30 min IV infusion) under isoflurane; format: in vivo, mice
Protocol: To acquire dynamic PET scans, mice were anesthetized with isoflurane and the lateral tail vein was catheterized. Simultaneous with the administration of approximately 1.7 MBq (50 μCi) of ^52Mn^2+ as a fast IV bolus, one-hour scans were recorded and list-mode files were binned into 46 frames (12×5 s, 6×10 s, 6×30 s, 10×60 s, 6×150 s, 6×300 s) and the images reconstructed using a non-scatter-corrected OSEM3D/MAP algorithm. In another study, 1.7 MBq (50 μCi) of ^52Mn^2 was continuously infused with a syringe pump (Kd Scientific, Model 780100) over a period of 30 min, starting at the beginning of the PET scan. List-mode files were framed into 30×2 min frames and reconstructed using the above-mentioned algorithm.

[7] = tested on: isolated ob/ob mouse islets; test: Uptake of ^52Mn^2+ in isolated islets under stimulatory or inhibitory conditions; format: cell-based; details: low glucose (1 mM), 370 kBq ^52Mn^2+
Protocol: Mouse pancreatic islets were isolated by collagenase digestion. Briefly, mice were placed under shallow anesthesia and sacrificed via cervical dislocation. The mouse common bile duct was cannulized and 3-5 mL of an ice-cold solution containing type XI collagenase (0.5 mg/mL; Sigma Aldrich, St. Louis, Mo.) and bovine serum albumin (BSA; 0.2 mg/mL; Sigma Aldrich, St. Louis, Mo.) in Hank's balanced salt solution (HBSS; Invitrogen, Carlsbad, Calif.) was injected into the mouse pancreas. After inflation, the pancreas was removed, placed in a glass vial containing 5 mL of the collagenase solution, and incubated in a shaking water bath at 37° C. Samples were digested for approximately 30 min after which the digests were centrifuged at 50×g for 2 min and islet pellets were washed three times with 30 mL of an ice-cold BSA (0.2 mg/mL) in HBSS solution. The pellet was resuspended and islets handpicked into 35 mm petri dishes. Following isolation, islets were placed in RPMI1640 media supplemented with penicillin (100 U/mL; Invitrogen), streptomycin (100 μg/mL; Invitrogen), and FBS [10% (wt/vol); Sigma] and incubated overnight at 37° C. in a 5% CO2 atmosphere.
The uptake of ^52Mn^2+ by murine islets of Langerhans was determined under several stimulatory or inhibitory conditions. Batches of 50 islets were transferred into 0.45 μm filtered bottom 1 mL centrifuge vials (Thermo Fisher Scientific, Grand Island, N.Y.), 500 μL of Krebs-Ringer buffer (KRB: 118 mM NaCl, 5.4 mM KCl, 2.4 mM CaCl, 1.2 mM MgSO4, 1 mM […], 20 mM HEPES; pH 7.4) containing a low glucose concentration (1 mM D-glucose) were added and the islets incubated for 30 min at 37° C. After removing the supernatant following centrifugation at 50×g for 5 min, 250 μL of KRB containing glucose, diazoxide (50 μM; Tocris Biosciences, Bristol, UK), or tolbutamide (250 μM; Selleckchem, Houston, Tex.) were added, and the vials were spiked with 370 kBq (10 μCi) of ^52Mn^2+. After 15 min of incubation, the solutions were filtered and islets were washed three times with KRB. The ^52Mn^2+ radioactivity in the islet pellets were measured in an automated gamma counter (Perkin Elmer).

[8] = ^52Mn^2+ PET and biodistribution in STZ type-1 diabetes model; format: in vivo, ICR mice
Protocol: Type 1 diabetes was induced in female ICR mice via a single IP injection of 180 mg/kg streptozotocin (STZ; MP Biomedical, LLC, Santa Ana, Calif.), a toxin that selectively destroys pancreatic beta cell. The injectable STZ solution (12.5 mg/mL) was prepared freshly in phosphate buffered saline (PBS). The weight of each mouse was measured daily, and blood glucose levels were recorded every other day with a glucometer (TRUEresult, Trividia Health Inc., Fort Lauderdale, Fla.) using blood samples collected from the tail vein. Mice were considered diabetic after two consecutive blood glucose readings above 250 mg/dL and were used for PET imaging studies one week after the injection of STZ. To evaluate ^52Mn^2+ pancreatic uptake on diabetic mice, 0.74 MBq (20 μCi) of activity were administered IV and static PET images recorded one hour after administration of the tracer. Ex vivo biodistribution was carried out following PET acquisition.

[9] = ^52Mn^2+ PET in pre-type 2 diabetic ob/ob and lean C57BL/6J mice; format: in vivo
Text: Given the altered glucose metabolism in obese mice, we compared the pancreatic uptake of ^52Mn^2+ in lean (wild-type) and obese (ob/ob) mice on the C57BL/6J background. For PET imaging, 0.74 MBq (20 μCi) of ^52Mn^2+ was IV injected into obese mice or lean controls one hour prior to PET scan acquisition. Subsequent ^52Mn^2+ accumulation in the pancreas and other organs of interest was quantified.

[10] = Static PET imaging of ^52Mn^2+ biodistribution in normal mice; format: in vivo, ICR mice; details: healthy mice, IV, peaked within minutes following administration
[11] = ICR mice, IV ^52Mn^2+, awake at injection, static PET 1 h post injection
[12] = rapid IV bolus, isoflurane throughout, 1 h post injection

type 2 vesicular transporter (VMAT2), sequence (Q05940 whole entry, species assumed): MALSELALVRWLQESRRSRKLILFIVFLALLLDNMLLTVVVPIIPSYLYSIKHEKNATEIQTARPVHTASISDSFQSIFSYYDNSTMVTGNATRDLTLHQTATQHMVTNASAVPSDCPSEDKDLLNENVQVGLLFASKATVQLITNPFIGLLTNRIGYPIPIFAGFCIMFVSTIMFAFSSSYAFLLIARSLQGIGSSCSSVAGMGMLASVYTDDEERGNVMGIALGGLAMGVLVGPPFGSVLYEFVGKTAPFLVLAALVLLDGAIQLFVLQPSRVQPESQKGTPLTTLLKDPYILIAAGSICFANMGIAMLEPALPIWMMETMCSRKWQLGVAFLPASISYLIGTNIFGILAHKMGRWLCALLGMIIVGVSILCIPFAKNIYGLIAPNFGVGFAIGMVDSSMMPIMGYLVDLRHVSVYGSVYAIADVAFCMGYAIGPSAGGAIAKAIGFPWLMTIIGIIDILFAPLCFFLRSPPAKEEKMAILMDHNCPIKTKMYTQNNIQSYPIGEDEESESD

Compound: COc1cc2c(cc1OCCCF)CCN1CC(CC(C)C)C(O)CC21 (stereo not drawn) [FP-(+)-DTBZ]
- affinity for VMAT2 [1]: high affinity

Compound: [54Mn] [Mn-54]
- blood clearance [2]: ~0.8 min

Compound: COc1cc2c(cc1O[11CH3])CCN1CC(CC(C)C)C(O)CC21 (stereo not drawn) [[^11C]-DTBZ, [^11C]-Dihydrotetrabenazine]
- pancreatic uptake [3]: very low

Compound: [52Mn+2] [^52Mn^2+]
- ^52Mn^2+ uptake in heart (PET ROI) [4, 11]: 2.11±0.20 SUV
- ^52Mn^2+ uptake in kidneys (PET ROI) [4, 11]: 5.13±0.02 SUV
- ^52Mn^2+ uptake in liver (PET ROI) [4, 11]: 3.27±0.36 SUV and 3.27±0.34 SUV
- ^52Mn^2+ uptake in muscle (PET ROI) [4, 11]: 0.38±0.03 SUV
- ^52Mn^2+ uptake in pancreas (PET ROI) [4, 11]: 5.13±0.38 SUV and 5.13±0.36 SUV
- ^52Mn^2+ uptake in salivary glands (PET ROI) [4, 11]: 2.30±0.26 SUV
- ^52Mn^2+ uptake in salivary gland at subsequent time points ([4]; ICR mice, longitudinal PET after 1 h up to 13 days post injection): around 3 SUV
- pancreas clearance half-life of ^52Mn^2+ ([4]; healthy mice, IV): approximately 8 days
- ^52Mn^2+ uptake in other organs (brain, lungs, bones, intestines, stomach, spleen) [5]: less than 0.5 SUV
- ^52Mn^2+ uptake in pancreas, continuous infusion ([6]; IV infusion over 30 min, isoflurane): 3.44±0.69 SUV
- ^52Mn^2+ uptake in kidney, continuous infusion ([6]; IV infusion over 30 min, isoflurane, 1 h post injection): 5.14±1.21 SUV
- reduction in pancreatic uptake, dynamic vs static PET ([6]; rapid IV bolus under isoflurane vs awake injection, 1 h post injection): ~50%
- time until uptake stabilized in organs of interest ([6]; rapid IV bolus, dynamic PET): within five minutes
- blood circulation half-life ([6]; rapid IV bolus, from myocardial TAC of dynamic PET): 10.7 ± 3.5 s
- ^52Mn^2+ uptake in heart, dynamic PET [6, 12]: 2.60±0.41 SUV
- ^52Mn^2+ uptake in kidneys, dynamic PET [6, 12]: 7.81±0.51 SUV
- ^52Mn^2+ uptake in liver, dynamic PET [6, 12]: 5.16±1.46 SUV
- ^52Mn^2+ uptake in muscle, dynamic PET [6, 12]: 0.16±0.02 SUV
- ^52Mn^2+ uptake in pancreas, dynamic PET [6, 12]: 2.74±0.59 SUV
- ^52Mn^2+ uptake by islets under resting conditions [7]: readily taken up
- ^52Mn^2+ uptake in pancreas of diabetic mice (PET ROI) ([8]; STZ (180 mg/kg) diabetic ICR mice, 1 h post injection, normal mice 5.13±0.38 SUV): 2.04±0.81 SUV
- decrease in pancreatic accumulation of ^52Mn^2+, ex vivo biodistribution ([8]; STZ-diabetic vs normal ICR mice): > 58%
- reduction in the pancreatic accumulation of ^52Mn^2+ ([8]; STZ-induced type-1 diabetes model vs normal): ~60%
- ^52Mn^2+ uptake in liver, lean mice ([9]; lean C57BL/6J, 1 h): 3.40±0.73 SUV
- ^52Mn^2+ uptake in salivary gland, lean mice ([9]; lean C57BL/6J, 1 h): 3.11±1.05 SUV
- ^52Mn^2+ pancreatic uptake, lean mice ([9]; lean C57BL/6J, PET 1 h after administration): 4.89±0.68 SUV
- ^52Mn^2+ uptake in liver, obese mice ([9]; ob/ob C57BL/6J, 1 h): 3.68±0.25 SUV
- ^52Mn^2+ uptake in salivary gland, obese mice ([9]; ob/ob C57BL/6J, 1 h): 2.40±0.20 SUV
- ^52Mn^2+ pancreatic uptake, ob/ob mice ([9]; pre-type 2 diabetic ob/ob C57BL/6J, PET 1 h after administration): 7.27±1.03 SUV
- ^52Mn^2+ uptake in the pancreas at peak [10]: 5-6 SUV
